Results from patent US5672715A, “Herbicidal substituted 3-aryl-pyrazoles” (Monsanto Company, priority 1995, dated 1997).

What was measured:
Format in all cases: in vivo
[1] = system: Barnyardgrass; test: pre-emergence herbicide test; settings: Echinochloa crus-galli, pre-emergence, 0.25 lb/A; read-out: % plant inhibition
Summary of the method: (§1)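 Sown seeds covered with dosed topsoil; carrier acetone or water; greenhouse, watered from below, optional 1/4 in overhead irrigation post-treatment; % inhibition at ~14 d.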

[2] = system: Bedstraw Catchweed; test: pre-emergence herbicide test; settings: Galium aparine, pre-emergence, 0.25 lb/A; read-out: % plant inhibition
Summary of the method: as §1

[3] = system: Birdseye Speedwell; test: pre-emergence herbicide test; settings: pre-emergence, 0.25 lb/A; read-out: % plant inhibition
Summary of the method: as §1

[4] = system: Blackgrass; test: pre-emergence herbicide test; settings: Alopecurus myosuroides, pre-emergence, 0.25 lb/A; read-out: % plant inhibition
Summary of the method: as §1

[5] = system: Cocklebur; test: pre-emergence herbicide test; settings: Xanthium strumarium, pre-emergence, 0.25 lb/A; read-out: % plant inhibition
Summary of the method: as §1

[6] = system: Common Chickweed; test: pre-emergence herbicide test; settings: pre-emergence, 0.25 lb/A; read-out: % plant inhibition
Summary of the method: as §1

[7] = system: Corn; test: pre-emergence herbicide test; settings: Zea mays, pre-emergence, 0.25 lb/A; read-out: % plant inhibition
Summary of the method: as §1

[8] = system: Downy Brome; test: pre-emergence herbicide test; settings: Bromus tectorum, pre-emergence, 0.25 lb/A; read-out: % plant inhibition
Summary of the method: as §1

[9] = system: Giant Foxtail; test: pre-emergence herbicide test; settings: Setaria faberi, pre-emergence, 0.25 lb/A; read-out: % plant inhibition
Summary of the method: as §1

[10] = system: Green Foxtail; test: pre-emergence herbicide test; settings: Setaria viridis, pre-emergence; 0.25 lb/A; read-out: % plant inhibition
Summary of the method: as §1

[11] = system: Morning Glory; test: pre-emergence herbicide test; settings: Ipomoea, pre-emergence, 0.25 lb/A; read-out: % plant inhibition
Summary of the method: as §1

[12] = system: Rape; test: pre-emergence herbicide test; settings: pre-emergence, 0.25 lb/A; read-out: % plant inhibition
Summary of the method: as §1

[13] = system: Seedling Johnsongrass; test: pre-emergence herbicide test; settings: Sorghum halepense, pre-emergence, 0.25 lb/A; read-out: % plant inhibition
Summary of the method: as §1

[14] = system: Soybean; test: pre-emergence herbicide test; settings: Glycine max, pre-emergence, 0.25 lb/A; read-out: % plant inhibition
Summary of the method: as §1

[15] = system: Velvetleaf; test: pre-emergence herbicide test; settings: Abutilon theophrasti, pre-emergence, 0.25 lb/A; read-out: % plant inhibition
Summary of the method: as §1

[16] = system: Wheat; test: pre-emergence herbicide test; settings: Triticum aestivum, pre-emergence, 0.25 lb/A; read-out: % plant inhibition
Summary of the method: as §1

[17] = system: Wild Oats; test: pre-emergence herbicide test; settings: Avena fatua, pre-emergence, 0.25 lb/A; read-out: % plant inhibition
Summary of the method: as §1

[18] = system: Barnyardgrass; test: post-emergence herbicide test; settings: Echinochloa crus-galli, post-emergence, 0.25 lb/A; read-out: % plant inhibition
Summary of the method: (§2)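 Activity is given as percent inhibition of each species following foliar application. Pots were sprayed individually in a chamber once plants reached two to three weeks.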

[19] = system: Bedstraw Catchweed; test: post-emergence herbicide test; settings: Galium aparine, post-emergence, 0.25 lb/A; read-out: % plant inhibition
Summary of the method: as §2

[20] = system: Birdseye Speedwell; test: post-emergence herbicide test; settings: post-emergence, 0.25 lb/A; read-out: % plant inhibition
Summary of the method: as §2

[21] = system: Blackgrass; test: post-emergence herbicide test; settings: Alopecurus myosuroides, post-emergence, 0.25 lb/A; read-out: % plant inhibition
Summary of the method: as §2

[22] = system: Cocklebur; test: post-emergence herbicide test; settings: Xanthium strumarium, post-emergence, 0.25 lb/A; read-out: % plant inhibition
Summary of the method: as §2

[23] = system: Common Chickweed; test: post-emergence herbicide test; settings: post-emergence, 0.25 lb/A; read-out: % plant inhibition
Summary of the method: as §2

[24] = system: Corn; test: post-emergence herbicide test; settings: Zea mays, post-emergence, 0.25 lb/A; read-out: % plant inhibition
Summary of the method: as §2

[25] = system: Downy Brome; test: post-emergence herbicide test; settings: Bromus tectorum, post-emergence, 0.25 lb/A; read-out: % plant inhibition
Summary of the method: as §2

[26] = system: Giant Foxtail; test: post-emergence herbicide test; settings: Setaria faberi, post-emergence, 0.25 lb/A; read-out: % plant inhibition
Summary of the method: as §2

[27] = system: Green Foxtail; test: post-emergence herbicide test; settings: Setaria viridis, post-emergence, 0.25 lb/A; read-out: % plant inhibition
Summary of the method: as §2

[28] = system: Morning Glory; test: post-emergence herbicide test; settings: Ipomoea, post-emergence, 0.25 lb/A; read-out: % plant inhibition
Summary of the method: as §2

[29] = system: Rape; test: post-emergence herbicide test; settings: post-emergence, 0.25 lb/A; read-out: % plant inhibition
Summary of the method: as §2

[30] = system: Seedling Johnsongrass; test: post-emergence herbicide test; settings: Sorghum halepense, post-emergence, 0.25 lb/A; read-out: % plant inhibition
Summary of the method: as §2

[31] = system: Soybean; test: post-emergence herbicide test; settings: Glycine max, post-emergence, 0.25 lb/A; read-out: % plant inhibition
Summary of the method: as §2

[32] = system: Velvetleaf; test: post-emergence herbicide test; settings: Abutilon theophrasti, post-emergence, 0.25 lb/A; read-out: % plant inhibition
Summary of the method: as §2

[33] = system: Wheat; test: post-emergence herbicide test; settings: Triticum aestivum, post-emergence, 0.25 lb/A; read-out: % plant inhibition
Summary of the method: as §2

[34] = system: Wild Oats; test: post-emergence herbicide test; settings: Avena fatua, post-emergence, 0.25 lb/A; read-out: % plant inhibition
Summary of the method: as §2

| Structure (SMILES) | inhibition at 280.212 g/ha [1] | inhibition at 280.212 g/ha [2] | inhibition at 280.212 g/ha [3] | inhibition at 280.212 g/ha [4] | inhibition at 280.212 g/ha [5] | inhibition at 280.212 g/ha [6] | inhibition at 280.212 g/ha [7] | inhibition at 280.212 g/ha [8] | inhibition at 280.212 g/ha [9] | inhibition at 280.212 g/ha [10] | inhibition at 280.212 g/ha [11] | inhibition at 280.212 g/ha [12] | inhibition at 280.212 g/ha [13] | inhibition at 280.212 g/ha [14] | inhibition at 280.212 g/ha [15] | inhibition at 280.212 g/ha [16] | inhibition at 280.212 g/ha [17] | inhibition at 280.212 g/ha [18] | inhibition at 280.212 g/ha [19] | inhibition at 280.212 g/ha [20] | also measured |
| --- | --- | --- | --- | --- | --- | --- | --- | --- | --- | --- | --- | --- | --- | --- | --- | --- | --- | --- | --- | --- | --- |
| C=CCOC(=O)c1cc(-c2nn(C)c(C(F)(F)F)c2C)c(F)cc1Cl [Compound 54] | 100% | 80% | 98% | 35% | 35% | 90% | 10% | 75% | 99% | 100% | 40% | 0% | 99% | 5% | 100% | 5% | 30% | 95% | 98% | 100% | inhibition at 280.212 g/ha [21]: 30%; inhibition at 280.212 g/ha [22]: 99%; inhibition at 280.212 g/ha [23]: 90%; inhibition at 280.212 g/ha [24]: 35%; inhibition at 280.212 g/ha [25]: 70%; inhibition at 280.212 g/ha [26]: 90%; inhibition at 280.212 g/ha [27]: 98%; inhibition at 280.212 g/ha [28]: 80%; inhibition at 280.212 g/ha [29]: 75%; inhibition at 280.212 g/ha [30]: 90%; inhibition at 280.212 g/ha [31]: 80%; inhibition at 280.212 g/ha [32]: 100%; inhibition at 280.212 g/ha [33]: 16%; inhibition at 280.212 g/ha [34]: 80% |
| Cc1c(-c2cc(C(=O)OCC(C)C)c(Cl)cc2F)nn(C)c1C(F)(F)F [Compound 45] | 75% | 98% | 100% | 100% | 50% | 80% | 0% | 98% | 100% | 100% | 30% | 5% | 98% | 0% | 98% | 0% | 50% | 75% | 100% | 100% | inhibition at 280.212 g/ha [21]: 98%; inhibition at 280.212 g/ha [22]: 100%; inhibition at 280.212 g/ha [23]: 100%; inhibition at 280.212 g/ha [24]: 55%; inhibition at 280.212 g/ha [25]: 95%; inhibition at 280.212 g/ha [26]: 80%; inhibition at 280.212 g/ha [27]: 100%; inhibition at 280.212 g/ha [28]: 50%; inhibition at 280.212 g/ha [29]: 50%; inhibition at 280.212 g/ha [30]: 95%; inhibition at 280.212 g/ha [31]: 35%; inhibition at 280.212 g/ha [32]: 100%; inhibition at 280.212 g/ha [33]: 17%; inhibition at 280.212 g/ha [34]: 80% |
